Test results: BindingDB's records for patent US20240217978 (Chong Kun Dang Pharmaceutical, 2024)

Molecular target: Adenosine receptor A2a (Homo sapiens, UniProt P29274)
Assay: Evaluation of A2a Receptor Binding Affinity
Protocol: A radioligand binding test was conducted by using [3H]-NECA (5′-N-[adenine-2,8-3H]-ethylcarboxamidoadenosine) and an adenosine A2a membrane. As the adenosine A2a membrane, a cell membrane prepared from HEK-293 cells transfected with human adenosine A2a receptor was used. The membrane used for the test was prepared by incubating with a radioligand until equilibrium was reached. In order to separate the radioligand-bound membrane, the unbound radioligand was separated by using Packard filtermate Harverster and glass filter plates.10 μL of test compound dissolved in binding buffer (50 mM Tris, 10 mM MgCl2, 1 mM EDTA pH 7.4) and 20 μL of [3H]-NECA (final concentration of 37 nM) or reference inhibitor was mixed with 20 μL of A2a membrane in an unbound 96-well plate and incubated at room temperature for one hour. Prior to filtration, a 96-well harvest filter plate was coated with 0.33% polyethylenimine for 30 minutes and then washed with assay buffer. The binding reaction was transferred to the filter plate and washed three times with wash buffer. The dish was then dried, scintillant was added, and radioactivity was counted in a scintillation counter (Topcount NXT, Packard).

Sequence of Adenosine receptor A2a (P29274 whole entry): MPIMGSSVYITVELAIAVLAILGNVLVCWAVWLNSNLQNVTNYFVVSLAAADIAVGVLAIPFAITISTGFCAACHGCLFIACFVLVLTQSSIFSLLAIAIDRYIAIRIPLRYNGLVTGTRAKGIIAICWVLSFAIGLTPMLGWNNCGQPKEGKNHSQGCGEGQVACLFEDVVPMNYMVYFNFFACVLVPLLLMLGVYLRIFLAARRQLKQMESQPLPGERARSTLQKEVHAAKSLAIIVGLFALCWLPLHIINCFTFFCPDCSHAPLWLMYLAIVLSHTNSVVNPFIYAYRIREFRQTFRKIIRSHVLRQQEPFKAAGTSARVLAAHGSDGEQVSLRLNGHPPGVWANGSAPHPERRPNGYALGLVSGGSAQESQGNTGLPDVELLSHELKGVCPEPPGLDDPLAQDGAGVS

Compound	IC50 [nM]
Nc1nc(N2CCC[C@H]2C(=O)N2CCC(C(=O)Nc3cccc(F)c3)CC2)nc2nc(-c3ccco3)nn12 [US20240217978, Example 130]	2
CCNC(=O)N1CCN(C(=O)[C@@H]2CCCN2c2nc(N)n3nc(-c4ccco4)nc3n2)CC1 [US20240217978, Example 115]	10
Nc1nc(N2CCC[C@H]2C(=O)N2CCCN(c3ncccn3)CC2)nc2nc(-c3ccco3)nn12 [US20240217978, Example 277]	12
